The substances below were run on Staphylococcus aureus, ATCC 29213 (assay: MIC, NCCLS/CLSI guidelines (Example 5), strain A). Conditions: relative to wildtype Plectasin; average of two independent experiments.
Assay type: cell-based
Experimental: (§1) Plectasin wild-type (SEQ ID NO: 1) and several variants of Plectasin were expressed and purified. The Minimal Inhibitory Concentration (MIC) was determined to test for their antimicrobial activity following the NCCLS guidelines from CLSI (Clinical and Laboratory Standards Institute; formerly known as National Committee for Clinical and Laboratory Standards).
(§2) The peptides were tested against the following strains: • A: Staphylococcus aureus, ATCC 29213; • B: Staphylococcus aureus, ATCC 25923; • C: Staphylococcus aureus, ATCC 29737; • D: Staphylococcus aureus, MRSA ST5 (2001), multi-resistant clinical human isolate from Statens Serum Institut, Denmark; • E: Staphylococcus aureus, MRSA ST80 (2003), multi-resistant clinical human isolate from Statens Serum Institut, Denmark.
(§3) All MIC values represent an average of two independent experiments; and all results in Table 5 are expressed relative to wildtype Plectasin:
(§4) 0: >100% of Plectasin wildtype MIC; 1: 80-100% of Plectasin wildtype MIC; 2: 50-80% of Plectasin wildtype MIC; 3: <50% of Plectasin wildtype MIC.
In the case of “D9S + M13L + Q14H: variant of Plectasin (SEQ ID NO: 1) (GFGCNGPWSEDDLHCHNHCKSIKGYKGGYCAKGGFVCKCY)”, the “Relative MIC, strain A” value is reported as 3 (<50% of Plectasin wildtype MIC).
“D9S + Q14K + V36L: variant of Plectasin (SEQ ID NO: 1) (GFGCNGPWSEDDMKCHNHCKSIKGYKGGYCAKGGFLCKCY)” was tested, and the “Relative MIC, strain A” value was 3 (<50% of Plectasin wildtype MIC).
For “D9S + Q14L + K26R: variant of Plectasin (SEQ ID NO: 1) (GFGCNGPWSEDDMLCHNHCKSIKGYRGGYCAKGGFVCKCY)”, the “Relative MIC, strain A” value was 3 (<50% of Plectasin wildtype MIC).
For “M13G + N17R + G33A: variant of Plectasin (SEQ ID NO: 1) (GFGCNGPWDEDDGQCHRHCKSIKGYKGGYCAKAGFVCKCY)”, the “Relative MIC, strain A” value was 3 (<50% of Plectasin wildtype MIC).

These substances were tested on Staphylococcus aureus, ATCC 25923 (assay: MIC, NCCLS/CLSI guidelines (Example 5), strain B). Conditions: relative to wildtype Plectasin; average of two independent experiments.
Assay type: cell-based
Experimental: as §1, §2, §3, §4
In the case of “D9S + M13L + Q14H: variant of Plectasin (SEQ ID NO: 1) (GFGCNGPWSEDDLHCHNHCKSIKGYKGGYCAKGGFVCKCY)”, the “Relative MIC, strain B” value is reported as 3 (<50% of Plectasin wildtype MIC).
“D9S + Q14K + V36L: variant of Plectasin (SEQ ID NO: 1) (GFGCNGPWSEDDMKCHNHCKSIKGYKGGYCAKGGFLCKCY)” was tested, and the “Relative MIC, strain B” value was 3 (<50% of Plectasin wildtype MIC).
“D9S + Q14L + K26R: variant of Plectasin (SEQ ID NO: 1) (GFGCNGPWSEDDMLCHNHCKSIKGYRGGYCAKGGFVCKCY)” was tested, and the “Relative MIC, strain B” value was 3 (<50% of Plectasin wildtype MIC).
For “M13G + N17R + G33A: variant of Plectasin (SEQ ID NO: 1) (GFGCNGPWDEDDGQCHRHCKSIKGYKGGYCAKAGFVCKCY)”, the “Relative MIC, strain B” value was 3 (<50% of Plectasin wildtype MIC).

Each substance was assayed on Staphylococcus aureus, ATCC 29737 (assay: MIC, NCCLS/CLSI guidelines (Example 5), strain C). Conditions: relative to wildtype Plectasin; average of two independent experiments.
Assay type: cell-based
Experimental: as §1, §2, §3, §4
With “D9S + M13L + Q14H: variant of Plectasin (SEQ ID NO: 1) (GFGCNGPWSEDDLHCHNHCKSIKGYKGGYCAKGGFVCKCY)” the “Relative MIC, strain C” value was 3 (<50% of Plectasin wildtype MIC).
“D9S + Q14K + V36L: variant of Plectasin (SEQ ID NO: 1) (GFGCNGPWSEDDMKCHNHCKSIKGYKGGYCAKGGFLCKCY)” was tested, and the “Relative MIC, strain C” value was 3 (<50% of Plectasin wildtype MIC).
For “D9S + Q14L + K26R: variant of Plectasin (SEQ ID NO: 1) (GFGCNGPWSEDDMLCHNHCKSIKGYRGGYCAKGGFVCKCY)”, the “Relative MIC, strain C” value was 3 (<50% of Plectasin wildtype MIC).
For “M13G + N17R + G33A: variant of Plectasin (SEQ ID NO: 1) (GFGCNGPWDEDDGQCHRHCKSIKGYKGGYCAKAGFVCKCY)”, the “Relative MIC, strain C” value was 3 (<50% of Plectasin wildtype MIC).

These substances were tested on Staphylococcus aureus, MRSA ST5 (2001) (assay: MIC, NCCLS/CLSI guidelines (Example 5), strain D). Conditions: relative to wildtype Plectasin; average of two independent experiments.
Assay type: cell-based
Experimental: as §1, §2, §3, §4
In the case of “D9S + M13L + Q14H: variant of Plectasin (SEQ ID NO: 1) (GFGCNGPWSEDDLHCHNHCKSIKGYKGGYCAKGGFVCKCY)”, the “Relative MIC, strain D” value is reported as 3 (<50% of Plectasin wildtype MIC).
“D9S + Q14K + V36L: variant of Plectasin (SEQ ID NO: 1) (GFGCNGPWSEDDMKCHNHCKSIKGYKGGYCAKGGFLCKCY)” was tested, and the “Relative MIC, strain D” value was 3 (<50% of Plectasin wildtype MIC).
For “D9S + Q14L + K26R: variant of Plectasin (SEQ ID NO: 1) (GFGCNGPWSEDDMLCHNHCKSIKGYRGGYCAKGGFVCKCY)”, the “Relative MIC, strain D” value was 3 (<50% of Plectasin wildtype MIC).
In the case of “M13G + N17R + G33A: variant of Plectasin (SEQ ID NO: 1) (GFGCNGPWDEDDGQCHRHCKSIKGYKGGYCAKAGFVCKCY)”, the “Relative MIC, strain D” value is reported as 3 (<50% of Plectasin wildtype MIC).

What follows are substances tested on Staphylococcus aureus, MRSA ST80 (2003) (assay: MIC, NCCLS/CLSI guidelines (Example 5), strain E). Conditions: relative to wildtype Plectasin; average of two independent experiments.
Assay type: cell-based
Experimental: as §1, §2, §3, §4
With “D9S + M13L + Q14H: variant of Plectasin (SEQ ID NO: 1) (GFGCNGPWSEDDLHCHNHCKSIKGYKGGYCAKGGFVCKCY)” the “Relative MIC, strain E” value was 3 (<50% of Plectasin wildtype MIC).
In the case of “D9S + Q14K + V36L: variant of Plectasin (SEQ ID NO: 1) (GFGCNGPWSEDDMKCHNHCKSIKGYKGGYCAKGGFLCKCY)”, the “Relative MIC, strain E” value is reported as 3 (<50% of Plectasin wildtype MIC).
With “D9S + Q14L + K26R: variant of Plectasin (SEQ ID NO: 1) (GFGCNGPWSEDDMLCHNHCKSIKGYRGGYCAKGGFVCKCY)” the “Relative MIC, strain E” value was 3 (<50% of Plectasin wildtype MIC).
With “M13G + N17R + G33A: variant of Plectasin (SEQ ID NO: 1) (GFGCNGPWDEDDGQCHRHCKSIKGYKGGYCAKAGFVCKCY)” the “Relative MIC, strain E” value was 3 (<50% of Plectasin wildtype MIC).

Each substance was assayed on panel of 6 different strains of Staphylococcus aureus (assay: Average MIC, NCCLS/CLSI guidelines using caMHB (Example 6)). Conditions: average over 6 S. aureus strains, duplicate; MIC above 32 counted as 64; read after 18-24 hours at 37° C.
Assay type: cell-based
Experimental: A large number of antimicrobial peptides of the invention were tested against a panel of 6 different strains of Staphylococcus aureus listed below:
Staphylococcus aureus, ATCC29213, MSSA, NCCLS reference strain; Staphylococcus aureus, ATCC25923, MSSA, NCCLS reference strain; Staphylococcus aureus, ATCC29737, MSSA; Staphylococcus aureus, E33235, MSSA; Staphylococcus aureus, 698-01, MRSA ST5, Str, Kan, Oxa; Staphylococcus aureus, 566-03, MRSA ST80, Oxa, Tet, Fus, Kan.
The staphylococci were exposed to the following peptide concentrations: 32; 16; 8; 4; 2; 1; 0.5; 0.25; 0.13; […]; and 0.03 microgram/mL. All peptides were purified, HPLC quantified and the concentrated peptides (>160 micrograms/mL) were diluted to 160 micrograms/mL in peptide dilution buffer (0.1% BSA, 0.01% Acetic Acid).
The MIC determination was done essentially as described by NCCLS/CLSI guidelines using caMHB. The MICs were read after 18-24 hours of 37° C. incubations and recorded along with the CFU in the table below.
A total number of 95 antimicrobial peptides of the invention were evaluated in duplicate against the 6 bacterial strains described above.
In the majority of the double determinations (93%), the MIC varied <2 fold. An average MIC is tabulated below. If the MIC was above 32 micrograms/mL, a value of 64 was used to calculate the average.
“D9S + M13L + Q14H: variant of Plectasin (SEQ ID NO: 1) (GFGCNGPWSEDDLHCHNHCKSIKGYKGGYCAKGGFVCKCY)” was tested, and the “Average MIC” value was 3 micrograms/mL.
For “D9S + Q14K + V36L: variant of Plectasin (SEQ ID NO: 1) (GFGCNGPWSEDDMKCHNHCKSIKGYKGGYCAKGGFLCKCY)”, the “Average MIC” value was 1 micrograms/mL.
In the case of “D9S + Q14L + K26R: variant of Plectasin (SEQ ID NO: 1) (GFGCNGPWSEDDMLCHNHCKSIKGYRGGYCAKGGFVCKCY)”, the “Average MIC” value is reported as 3 micrograms/mL.
For “M13G + N17R + G33A: variant of Plectasin (SEQ ID NO: 1) (GFGCNGPWDEDDGQCHRHCKSIKGYKGGYCAKAGFVCKCY)”, the “Average MIC” value was 2 micrograms/mL.
